Assay results reported in the supplement of paper PMC10627819.
≈ marks a conversion by molar mass, not a printed value.

Key:
[1] = tested on: S. aureus DSM 20231; test: Bliss interaction score (quartile over a dose matrix) (fitness difference); higher = more antagonism (negative = synergy)
How it was run: (§1)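 At entry into stationary phase, OD595 was recorded and divided by the robust mean of the no-drug wells on that plate, with any value above 1 set to 1. This gives the fitness measure used throughout. Single-drug fitness was inferred from combination data, and the Bliss score, observed minus product-expected fitness, is shown as quartiles across technical, biological and donor/recipient replicates.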

[2] = tested on: B. subtilis 168; test: as above
How it was run: as §1

[3] = tested on: S. aureus Newman; test: as above
How it was run: as §1

[4] = tested on: S. pneumoniae D39V; test: as above
How it was run: as §1

[5] = tested on: S. aureus DSM 20231; test: fitness (endpoint OD595 vs no drug) (fraction); higher = more growth
How it was run: (§2)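 At 37 °C, bacteria in TSB, LB Lennox or CY were grown in 384-well plates from a starting OD595 of 0.01. OD595 was measured every 30 min for 14 h, with the first reading used as background. Fitness is the optical density at the switch to stationary phase as a fraction of the robust mean of no-drug control wells, capped at 1.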

[6] = tested on: B. subtilis 168; test: as above
How it was run: as §2

[7] = tested on: S. aureus Newman; test: as above
How it was run: as §2

[8] = tested on: S. pneumoniae D39V; test: as above
How it was run: as §2

[9] = tested on: S. aureus DSM 20231
[10] = tested on: B. subtilis 168
[11] = tested on: S. aureus Newman
[12] = tested on: S. pneumoniae D39V
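Throughout, for Bliss interaction score (quartile over a dose matrix): first quartile when negative (synergy) and third quartile when positive (antagonism).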

CO/N=C(\C(=O)N[C@@H]1C(=O)N2C(C(=O)O)=C(COC(C)=O)CS[C@H]12)c1csc(N)n1 [Cefotaxime] + C[C@@H]1O[C@@H]1P(=O)(O)O [Fosfomycin]
Details | Bliss interaction score
[1] | 0.143
[2] | 0.0459
[3] | 0.113
[4] | -0.0644

fitness, one replicate
Details | partner 0.781 µg/mL | partner 1.562 µg/mL | partner 3.124 µg/mL | partner 6.248 µg/mL
[5], first compound 0.039 µg/mL | 0.718 | 0.673 | 0.504 | –
[6], first compound 0.00775 µg/mL | – | 0.573 | 0.446 | 0.274
[6], first compound 0.0155 µg/mL | – | 0.443 | 0.362 | 0.198
[6], first compound 0.031 µg/mL | – | 0.319 | 0.225 | 0.156
[6], first compound 0.0625 µg/mL | – | 0.454 | 0.413 | 0.34
[6], first compound 0.125 µg/mL | – | 0.472 | 0.389 | 0.238
[6], first compound 0.25 µg/mL | – | 0.367 | 0.337 | 0.186
[7], first compound 0.039 µg/mL | 0.58 | 0.511 | 0.202 | –
[7], first compound 0.312 µg/mL | 0.341 | 0.205 | 0.117 | –

Details | fitness
[5], first compound 0.078 µg/mL, partner 0.781 µg/mL | 0.65
[5], first compound 0.078 µg/mL, partner 1.562 µg/mL | 0.608
[5], first compound 0.078 µg/mL, partner 3.124 µg/mL | 0.559
[5], first compound 0.156 µg/mL, partner 0.781 µg/mL | 0.624
[5], first compound 0.156 µg/mL, partner 1.562 µg/mL | 0.62
[5], first compound 0.156 µg/mL, partner 3.124 µg/mL | 0.532
[5], first compound 0.312 µg/mL, partner 0.781 µg/mL | 0.683
[5], first compound 0.312 µg/mL, partner 1.562 µg/mL | 0.623
[5], first compound 0.312 µg/mL, partner 3.124 µg/mL | 0.518
[6], first compound 0.5 µg/mL, partner 1.562 µg/mL | 0.244
[6], first compound 0.5 µg/mL, partner 3.124 µg/mL | 0.194
[6], first compound 0.5 µg/mL, partner 6.248 µg/mL | 0.16
[6], first compound 1 µg/mL, partner 1.562 µg/mL | 0.134
[6], first compound 1 µg/mL, partner 3.124 µg/mL | 0.102
[6], first compound 1 µg/mL, partner 6.248 µg/mL | 0.0644
[6], first compound 2 µg/mL, partner 1.562 µg/mL | 0.13
[6], first compound 2 µg/mL, partner 3.124 µg/mL | 0.117
[6], first compound 2 µg/mL, partner 6.248 µg/mL | 0.054
[7], first compound 0.078 µg/mL, partner 0.781 µg/mL | 0.628
[7], first compound 0.078 µg/mL, partner 1.562 µg/mL | 0.536
[7], first compound 0.078 µg/mL, partner 3.124 µg/mL | 0.21
[7], first compound 0.156 µg/mL, partner 0.781 µg/mL | 0.536
[7], first compound 0.156 µg/mL, partner 1.562 µg/mL | 0.497
[7], first compound 0.156 µg/mL, partner 3.124 µg/mL | 0.206
[7], first compound 0.625 µg/mL, partner 0.781 µg/mL | 0.17
[7], first compound 0.625 µg/mL, partner 1.562 µg/mL | 0.185
[7], first compound 0.625 µg/mL, partner 3.124 µg/mL | 0.084
[7], first compound 1.25 µg/mL, partner 0.781 µg/mL | 0.0664
[7], first compound 1.25 µg/mL, partner 1.562 µg/mL | 0.033
[7], first compound 1.25 µg/mL, partner 3.124 µg/mL | 0.0169
[7], first compound 2.5 µg/mL, partner 0.781 µg/mL | 0.0252
[7], first compound 2.5 µg/mL, partner 1.562 µg/mL | 0.0136
[7], first compound 2.5 µg/mL, partner 3.124 µg/mL | 0.0374
[8], first compound 0.0018 µg/mL, partner 1.25 µg/mL | 0.958
[8], first compound 0.0018 µg/mL, partner 2.5 µg/mL | 0.959
[8], first compound 0.0018 µg/mL, partner 5 µg/mL | 0.761
[8], first compound 0.0035 µg/mL, partner 1.25 µg/mL | 0.962
[8], first compound 0.0035 µg/mL, partner 2.5 µg/mL | 0.943
[8], first compound 0.0035 µg/mL, partner 5 µg/mL | 0.736
[8], first compound 0.007 µg/mL, partner 1.25 µg/mL | 0.897
[8], first compound 0.007 µg/mL, partner 2.5 µg/mL | 0.778
[8], first compound 0.007 µg/mL, partner 5 µg/mL | 0.533

CO/N=C(\C(=O)N[C@@H]1C(=O)N2C(C(=O)O)=C(COC(N)=O)CS[C@H]12)c1ccco1 [Cefuroxime]
[6]
Details | fitness
0.195 µg/mL | 0.319
0.39 µg/mL | 0.26
0.78 µg/mL | 0.212
1.562 µg/mL | 0.332
3.125 µg/mL | 0.264
6.25 µg/mL | 0.227

Details | MIC [µg/mL]
[9] | 0.25 (≈ 0.589 µM)
[10] | 2 (≈ 4.71 µM)
[11] | 0.25 (≈ 0.589 µM)
[12] | 0.25 (≈ 0.589 µM)
